# Where two headings read alike, the source gives them in different places.
# Legend:
# [1] = system: Staphylococcus aureus ATCC 29213; format: cell-based; conditions: LB medium, 24 h, 30° C.
# Procedure: (§1) All strains were cultured in LB medium (lysogenic broth).
# (§2) The test compounds were dissolved in water. […] Data were obtained from three independent experiments.
# [2] = system: Pseudomonas aeruginosa PAO1 PCM 499; format: cell-based; conditions: LB medium, 24 h, 30° C.
# Procedure: as §1, §2
# [3] = system: Klebsiella pneumoniae PCM 1; format: cell-based; conditions: LB medium, 24 h, 30° C.
# Procedure: as §1, §2
# [4] = system: Staphylococcus epidermidis ATCC 12228; format: cell-based; conditions: LB medium, 24 h, 30° C.
# Procedure: as §1, §2
# [5] = system: Salmonella sv. typhimurium TT622; format: cell-based; conditions: 24 h
# Procedure: as §1, §2
# [6] = system: Escherichia coli ST2-8624 O157:H7; format: cell-based; conditions: LB medium, 24 h, 30° C.
# Procedure: as §1, §2
# [7] = system: Yersinia enterocolitica PCM 2081; format: cell-based; conditions: LB medium, 24 h, 30° C.
# Procedure: as §1, §2
# [8] = system: Enterococcus faecalis ATCC 14506; format: cell-based; conditions: LB medium, 24 h, 30° C.
# Procedure: as §1, §2
# [9] = system: Methicillin-resistant Staphylococcus aureus (MRSA) 401/5; conditions: MRSA strain (+) 401/5; LB medium, 24 h, 30° C.
# Excerpt: (§3) All bacterial strains were obtained from the Polish Collection of Microorganisms (PCM) or American Type Culture Collection (ATCC). Gram-positive bacterial strains: Staphylococcus aureus ATCC 29213, Staphylococcus epidermidis ATCC 12228, Enterococcus faecalis ATCC 14506. Methicillin-resistant Staphylococcus aureus (MRSA) bacterial strains: Staphylococcus aureus 401/5, Staphylococcus aureus 4811/13, Staphylococcus aureus 5288/13. Gram-negative bacterial strains: Escherichia coli ST2-8624 O157:H7, Pseudomonas aeruginosa PAO1 PCM 499, Klebsiella pneumoniae PCM 1, Salmonella sv. typhimurium TT622, and Yersinia enterocolitica PCM 2081. All strains were cultured in LB medium (lysogenic broth).
# (§4) 10 mL of LB medium was inoculated with the material from a single bacterial colony and cultured at 30° C. with shaking overnight. The optical density of overnight cultures (at 600 nm) was then brought to 0.05 by dilution with a fresh portion of LB medium. The test compounds were dissolved in water. Serial dilutions of the compounds were performed in LB medium ranging from 5 to 50 μg/mL (final concentrations). The experiment was carried out by adding 100 μL of each prepared dilution to 100 μL of diluted overnight bacterial culture in the wells of a 96-well titer plate. […] Optical density measurements were conducted using a TECAN Sunrise plate reader. Data were obtained from three independent experiments.
# [10] = system: Methicillin-resistant Staphylococcus aureus (MRSA) 4811/13; conditions: MRSA strain (+) 4811/13; LB medium, 24 h, 30° C.
# Excerpt: as §3, §4
# [11] = system: Methicillin-resistant Staphylococcus aureus (MRSA) 5288/13; conditions: MRSA strain (+) 5288/13; LB medium, 24 h, 30° C.
# Excerpt: as §3, §4
# [12] = system: strains of methicillin-resistant Staphylococcus aureus (MRSA); test: Activity against MRSA strains (summary of the MIC results); format: cell-based; conditions: in words, from the MIC values of Table 1
# Procedure: as §1, §2
# The results of the measurements summarized in Table 1 indicate that all of the lipooligoureas tested show varying activity against the bacterial strains tested. Lipooligoureas according to the invention show activity against both gram-positive and gram-negative bacterial strains. The results obtained indicate a certain degree of selectivity of the lipooligoureas according to the invention against gram-positive strains of Staphylococcus aureus ATCC 29213 and Staphylococcus epidermidis ATCC 12228, for which by far the highest activity of the tested lipooligoureas was observed, i.e. the lowest values of MIC. This trend is also reflected in the activity against strains of methicillin-resistant Staphylococcus aureus (MRSA).
# [13] = (−) Salmonella sv. typhimurium TT622, LB medium, 30° C.
SMILES,MIC [1] [µg/mL],MIC [2],MIC [3],MIC [4] [µg/mL],"MIC [5, 13]",MIC [6],MIC [7],MIC [8],MIC [9] [µg/mL],MIC [10] [µg/mL],MIC [11] [µg/mL],MIC [5] [µg/mL],activity against strains of methicillin-resistant Staphylococcus aureus (MRSA) [12]
CCCCCCCCCC(=O)N[C@H](CNC(=O)N[C@@H](CCCCN)CNC(=O)N[C@@H](CCCCN)CNC(=O)N[C@H](CNC(=O)N[C@@H](CCCCN)CNC(N)=O)CC(C)C)Cc1ccccc1 [LOU1],30,"n.d. (n.d. = not determined, i.e., the MIC value was higher than 50 μg/mL)","n.d. (n.d. = not determined, i.e., the MIC value was higher than 50 μg/mL)",30,"n.d. (n.d. = not determined, i.e., the MIC value was higher than 50 μg/mL)","n.d. (n.d. = not determined, i.e., the MIC value was higher than 50 μg/mL)","n.d. (n.d. = not determined, i.e., the MIC value was higher than 50 μg/mL)","n.d. (n.d. = not determined, i.e., the MIC value was higher than 50 μg/mL)",30,30,40,,
CCCCCCCCCC(=O)N[C@H](CNC(=O)N[C@@H](CCN)CNC(=O)N[C@@H](CCN)CNC(=O)N[C@H](CNC(=O)N[C@H](CNC(N)=O)CC(C)C)CC(C)C)Cc1ccccc1 [LOU2],10,30 µg/mL,30 µg/mL,10,,30 µg/mL,30 µg/mL,20 µg/mL,10,10,10,30,particularly high activity
CCCCCCCCCC(=O)N[C@H](CNC(=O)N[C@@H](CCN)CNC(=O)N[C@H](CNC(=O)N[C@H](CNC(=O)N[C@@H](CCN)CNC(N)=O)CC(C)C)CC(C)C)Cc1ccccc1 [LOU3],5,10 µg/mL,20 µg/mL,5,,10 µg/mL,10 µg/mL,5 µg/mL,5,5,5,20,particularly high activity
CCCCCCCCCC(=O)N[C@H](CNC(=O)N[C@@H](CCN)CNC(=O)N[C@@H](CCN)CNC(=O)N[C@H](CNC(=O)N[C@@H](CCN)CNC(N)=O)CC(C)C)Cc1ccccc1 [LOU4],20,"n.d. (n.d. = not determined, i.e., the MIC value was higher than 50 μg/mL)","n.d. (n.d. = not determined, i.e., the MIC value was higher than 50 μg/mL)",20,"n.d. (n.d. = not determined, i.e., the MIC value was higher than 50 μg/mL)","n.d. (n.d. = not determined, i.e., the MIC value was higher than 50 μg/mL)","n.d. (n.d. = not determined, i.e., the MIC value was higher than 50 μg/mL)",40 µg/mL,20,30,30,,

# Reference: US20260248748A1, “LIPOOLIGOUREAS, PHARMACEUTICAL COMPOSITION, AND LIPOOLIGOUREAS FOR USE AS MEDICAMENT” (priority 2022, published 2026)
